# Experimental data taken from patent US8933098B2, “Dimethyl-benzoic acid compounds” (Eli Lilly and Company, priority 2012, dated 2015).
# Key:
# [1] = molecular target: rat EP4 (Rattus norvegicus (Rat), UniProt P43114); experiment: In vitro rat EP4 functional antagonist activity (PGE2-stimulated cAMP, HTRF); type: cell-based; conditions: inhibition of PGE2-stimulated (EC80) cAMP production, HEK293 cells expressing rat EP4; read-out: IC50 measured at rat EP4
# Protocol: To test EP4 antagonist compounds in rEP4 cells, thaw the frozen cells and then resuspend cells in cAMP assay buffer. The cAMP buffer is made by HBSS without Phenol Red (Hyclone, SH30268) supplemented with 20 mM HEPES (Hyclone, SH30237), 0.1% BSA (Gibco, 15260) and 125 μM IBMX (Sigma, 15879). The cells are plated into 96-well half area flat-bottom polystyrene black plates (Costar 3694). […] The cAMP levels generated from the cells are quantified by a cAMP HTRF assay kit (Cisbio 62AM4PEC). The plates are read on an EnVision plate reader using HTRF optimized protocol (PerkinElmer). IC50's are calculated using Graphpad Prism (v. 4) nonlinear regression, sigmoidal dose response curve fitting.
# [2] = molecular target: T1, human EP4 (Homo sapiens (Human), UniProt P35408); experiment: In vitro antagonist activity in human whole blood (reversal of PGE2 inhibition of LPS-induced TNFα production); type: cell-based; conditions: read-out: IC50 measured at human EP4, human blood TNFα induction assay
# Target sequence in this assay (P35408 whole entry, looked up): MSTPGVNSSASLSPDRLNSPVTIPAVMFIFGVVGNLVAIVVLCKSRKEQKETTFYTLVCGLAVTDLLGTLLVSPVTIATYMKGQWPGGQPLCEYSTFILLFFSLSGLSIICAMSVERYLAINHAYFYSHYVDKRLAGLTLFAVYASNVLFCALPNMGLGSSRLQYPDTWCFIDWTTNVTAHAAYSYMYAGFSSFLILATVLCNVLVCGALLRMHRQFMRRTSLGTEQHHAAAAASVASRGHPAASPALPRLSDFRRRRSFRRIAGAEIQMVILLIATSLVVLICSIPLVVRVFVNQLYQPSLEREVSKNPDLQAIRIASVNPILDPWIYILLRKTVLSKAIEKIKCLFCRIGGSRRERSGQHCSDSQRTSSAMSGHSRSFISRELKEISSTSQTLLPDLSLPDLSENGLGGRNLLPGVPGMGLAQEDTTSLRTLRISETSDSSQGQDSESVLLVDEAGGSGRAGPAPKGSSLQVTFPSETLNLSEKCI
# Protocol: Blood is collected from normal volunteer donors into sodium heparin vacutainer tubes. Donors have not taken NSAIDs or celecoxib within 48 hours or glucocorticoids within two weeks of the donation. All tubes/donor are pooled into 50 mL Falcon conical centrifuge tubes and 98 μL/well is distributed into 96-well tissue culture plates (Falcon 3072). […] The plates are incubated for 20-24 hours at 37° C. in a 5% CO2 humidified atmosphere. The plates are centrifuged at 1800×g, 10 minutes at 22° C., in an Eppendorf 5810R centrifuge. Plasma is removed from the cell layer and is transferred to v-bottom polypropylene plates. TNFα levels in 2 μL plasma are quantified by a commercially available enzyme immunoassay (R&D Systems DY210), using Immulon 4 HBX plates (Thermo 3855) and 3,3′,5,5′ tetramethylbiphenyl-4,4′-diamine substrate (KPL 50-76-03). The plates are read at A450-A650 on a plate reader (Molecular Devices Versamax) using SOFTmaxPRO (v. 4.3.1) software. IC50s are calculated using Graphpad Prism (v. 4) nonlinear regression, sigmoidal dose response curve fitting. Results are expressed as the geometric mean±standard deviation; n=number of independent determinations.
# [3] = molecular target: human EP2 (Homo sapiens (Human), UniProt P43116); experiment: In vitro binding to human EP2, [3H]-PGE2 displacement on membranes; conditions: HEK293 membranes, n = 1, read-out: hEP2, Ki
# Chain of human EP2 (P43116 whole entry, canonical isoform): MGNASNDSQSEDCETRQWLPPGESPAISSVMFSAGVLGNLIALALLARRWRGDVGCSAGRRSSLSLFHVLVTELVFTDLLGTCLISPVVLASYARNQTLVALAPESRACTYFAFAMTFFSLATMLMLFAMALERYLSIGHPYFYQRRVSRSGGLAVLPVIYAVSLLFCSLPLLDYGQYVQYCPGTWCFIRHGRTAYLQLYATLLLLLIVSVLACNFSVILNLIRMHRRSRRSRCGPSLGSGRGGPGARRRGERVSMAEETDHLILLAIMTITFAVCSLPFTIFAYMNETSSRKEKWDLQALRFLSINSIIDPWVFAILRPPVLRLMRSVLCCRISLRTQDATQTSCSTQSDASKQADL
# Protocol: (§1) hEP1 and hEP4 membranes are prepared from recombinant HEK293 cells stably expressing human EP1 (Genbank accession number AY275470) or EP4 (Genbank accession number AY429109) receptors. hEP2 and hEP3 membranes are prepared from HEK293 cells transiently transfected with EP2 (Genbank accession number AY275471) or EP3 (isoform VI: Genbank accession number AY429108) receptor plasmids. Frozen cell pellets are homogenized in homogenization buffer using a Teflon/glass homogenizer. Membrane protein is aliquoted and quick frozen on dry ice prior to storage at −80° C. Homogenization buffer contained 10 mM Tris-HCl, pH 7.4, 250 mM sucrose, 1 mM EDTA, 0.3 mM indomethacin and plus Complete™, with EDTA, obtained from Roche Molecular Biochemicals (Catalog Number 1 697 498).
# (§2) Kd values for [3H]-PGE2 binding to each receptor are determined by saturation binding studies or homologous competition. Compounds are tested in a 96-well format using a three-fold dilution series to generate a 10-point curve. […] The membranes are harvested by filtration (TomTek harvester), washed 4 times with cold buffer (10 mM MES pH 6.0 with KOH, 10 mM MgCl2), dried in a 60° C. oven, and the radioactivity is quantified as counts per minute (CPM) using a TopCount detector. […]
# [4] = molecular target: human EP3 (isoform VI) (Homo sapiens, UniProt P43115); experiment: In vitro binding to human EP3, [3H]-PGE2 displacement on membranes; conditions: HEK293 membranes, n = 1, read-out: hEP3, Ki
# Chain of human EP3 (isoform VI) (P43115 whole entry, looked up, canonical isoform): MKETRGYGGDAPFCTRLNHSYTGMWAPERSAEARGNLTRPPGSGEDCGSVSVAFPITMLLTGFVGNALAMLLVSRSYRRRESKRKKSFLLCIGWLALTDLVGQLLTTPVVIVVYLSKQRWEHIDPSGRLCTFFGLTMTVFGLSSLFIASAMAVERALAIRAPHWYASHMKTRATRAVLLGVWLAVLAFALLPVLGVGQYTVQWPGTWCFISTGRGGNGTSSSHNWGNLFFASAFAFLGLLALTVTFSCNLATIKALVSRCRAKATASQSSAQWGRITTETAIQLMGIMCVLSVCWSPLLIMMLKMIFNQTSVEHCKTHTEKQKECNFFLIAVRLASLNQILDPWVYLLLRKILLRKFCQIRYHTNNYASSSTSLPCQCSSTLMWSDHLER
# Protocol: as §1, with “-80°” for “−80°”, “CompleteTM,” for “Complete™,”, “498). Kd values for [3H]-PGE2 binding to each receptor are determined by saturation binding studies or homologous competition. Compounds are tested in a 96-well format using a three-fold dilution series to generate a 10-point curve. […] The membranes are harvested by filtration (TomTek harvester), washed 4 times with cold buffer (10 mM MES pH 6.0 with KOH, 10 mM MgCl2), dried in a 60° C. oven, and the radioactivity is quantified as counts per minute (CPM) using a TopCount detector. […]” for “498).”
# [5] = molecular target: T1, human EP4; experiment: In vitro human EP4 functional antagonist activity (PGE2-stimulated cAMP, HTRF); type: cell-based; conditions: read-out: IC50 measured at human EP4
# Source text: The raw data are converted to cAMP amount (pmole/well) using a cAMP standard curve generated for each experiment.
# Target sequence in this assay (P35408 whole entry): as the sequence (P35408 whole entry, looked up) above
# [6] = molecular target: human EP1 (Homo sapiens (Human), UniProt P34995); experiment: In vitro binding to human EP1, [3H]-PGE2 displacement on membranes; conditions: HEK293 membranes, n = 1, read-out: hEP1, Ki
# Chain of human EP1 (P34995 whole entry): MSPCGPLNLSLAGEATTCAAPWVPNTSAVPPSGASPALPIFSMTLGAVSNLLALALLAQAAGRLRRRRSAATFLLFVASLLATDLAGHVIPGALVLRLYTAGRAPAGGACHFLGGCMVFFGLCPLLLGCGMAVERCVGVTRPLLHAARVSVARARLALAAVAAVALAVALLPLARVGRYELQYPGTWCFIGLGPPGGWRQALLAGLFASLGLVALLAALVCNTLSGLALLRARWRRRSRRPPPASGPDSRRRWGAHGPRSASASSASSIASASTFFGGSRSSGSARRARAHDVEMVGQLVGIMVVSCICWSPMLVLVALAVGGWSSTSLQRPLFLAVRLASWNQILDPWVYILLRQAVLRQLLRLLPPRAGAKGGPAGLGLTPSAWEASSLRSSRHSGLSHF
# Protocol: as §1, §2
# [7] = molecular target: T1, human EP4; experiment: In vitro binding to human EP4, [3H]-PGE2 displacement on membranes; conditions: HEK293 membranes, n = 7, read-out: hEP4, Ki
# Target sequence in this assay (P35408 whole entry, looked up): as the sequence (P35408 whole entry, looked up) above
# Protocol: Compounds are tested in a 96-well format using a three-fold dilution series to generate a 10-point curve. […] The binding reaction is performed in 200 μL MES buffer (10 mM MES pH 6.0 with KOH, 10 mM MgCl2 and 1 mM EDTA) using 0.5 mL polystyrene 96-well deep-well plates. […] The membranes are harvested by filtration (TomTek harvester), washed 4 times with cold buffer (10 mM MES pH 6.0 with KOH, 10 mM MgCl2), dried in a 60° C. oven, and the radioactivity is quantified as counts per minute (CPM) using a TopCount detector. […] Data are analyzed using a 4-parameter nonlinear logistic equation (ABase Equation 205) as shown: y=(A+((B−A)/(1+((C/x)^D)))) where, y=% specific inhibition, A=bottom of the curve; B=top of the curve; C=relative IC50 concentration causing 50% inhibition based on the range of the data from top to bottom; D=Hill, Slope=slope of the curve. Ki conversion from IC50 Values (Ki=IC50/(1+[L]/Kd) where [L] is the ligand concentration).
# Chain of rat EP4 (P43114 whole entry): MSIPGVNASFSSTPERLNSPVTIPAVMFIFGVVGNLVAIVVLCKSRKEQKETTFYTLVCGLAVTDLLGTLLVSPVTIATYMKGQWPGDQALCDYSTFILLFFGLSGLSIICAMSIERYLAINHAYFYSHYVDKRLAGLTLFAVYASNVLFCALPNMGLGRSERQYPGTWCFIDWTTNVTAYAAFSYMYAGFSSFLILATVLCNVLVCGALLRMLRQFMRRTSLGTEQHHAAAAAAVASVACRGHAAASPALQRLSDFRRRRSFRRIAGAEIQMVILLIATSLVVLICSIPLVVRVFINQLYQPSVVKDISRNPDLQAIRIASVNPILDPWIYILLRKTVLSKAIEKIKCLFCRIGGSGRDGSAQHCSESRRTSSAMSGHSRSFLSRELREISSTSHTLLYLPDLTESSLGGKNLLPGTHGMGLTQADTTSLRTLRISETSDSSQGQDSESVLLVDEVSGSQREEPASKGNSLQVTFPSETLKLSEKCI
smiles,measurement,setting,value
"Cc1ccc(N2CCC(O)CC2)nc1C(=O)Nc1c(C)cc(C(=O)O)cc1C [Example 1, 4-[[6-(4-hydroxy-1-piperidyl)-3-methyl-pyridine-2-carbonyl]amino]-3,5-dimethyl-benzoic acid]",IC50,[1],12 nM
same,IC50,[2],123 ± 81 nM
same,Ki,[3],> 18900 nM
same,Ki,[4],> 14000 nM
same,IC50,[5],5.6 ± 2.8 nM
same,Ki,[6],> 17500 nM
same,Ki,[7],76 ± 47 nM
